# Experiments:
# p21 promoter = test: p21/Waf1 p53-responsive promoter CAT reporter assay in transfected LNCaP cells; assay type: cell-based, human; conditions: LNCaP cells co-transfected with p21-CAT reporter and wild type p53 plasmid; TSA 100 nM
# Protocol: (§1) FIG. 2: Opposite regulatory effect of p53 on PSA and p21 promoters. Chloramphenicol acetyltransferase (CAT)-reporter constructs were used to estimate p53 influence on PSA and p21 promoter elements. […]
# (§2) FIG. 3: Trichostatin A (TSA) treatment eliminates the effect p53 has on PSA promoter activity. […] TSA (100 nM) was added 5 h and CAT activity was measured 40 h post-transfection. […]
# (§3) Since it has previously been shown that negative regulation of transcription by p53 may involve p53-mediated recruitment of histone deacetylases (HDAC) (Murphy et al., Genes Dev., i3:2490-2501 1999), the inventors set out to determine whether this would be also true for the PSA promoter. […] At the same time, TSA had no effect on p53-mediated transactivation as determined in a similar experiment employing the p21 promoter-driven CAT reporter construct (FIG. 3). […]
# PSA promoter = test: PSA promoter/enhancer CAT reporter assay in transfected LNCaP cells; assay type: cell-based, human; conditions: LNCaP cells co-transfected with PSA-CAT reporter and wild type p53 plasmid; TSA 100 nM
# Protocol: as §1, §2, §3
compound,measurement,setting,value
"CC(/C=C/C(=O)NO)=C\[C@@H](C)C(=O)c1ccc(N(C)C)cc1 [TSA, Trichostatin A]",p53-mediated transactivation of p21 promoter-driven CAT reporter,p21 promoter,no effect
same,p53-mediated repression of PSA promoter driven transcriptional activity (CAT activity),PSA promoter,completely abrogated

# — US20040241653A1, “Methods for identifying marker genes for cancer” (priority 2001, published 2004)
